From patent publication US5498522A, “Methods for the use of spermidine/spermine N^1 -acetyltransferase as a prognostic indicator and/or a tumor response marker” (priority 1993, dated 1996)
Several values for one entry are separate records, joined by “and”; a condition that tells them apart may be missing. Equal entries are not always repeated. Entries after “also recorded” stand apart in the source; their conditions may differ.

What was measured:
[1] = test system: A121 human ovarian adenocarcinoma xenografts; assay: antitumor response against A121 human ovarian adenocarcinoma xenografts in mice; format: in vivo
Procedure: (§1) […] where 1 represents length; w--width; and h--height. Tumor sizes were monitored 2 times/week until the median volume (V=0.4(a^2 ×b) where a is the smaller of the two perpendicular tumor diameters). As an indication of drug toxicity, animal weights were also recorded at the time of tumor volume measurement. Statistical analyses were performed on mouse tumor size and weight parameters by using the Mann-Whitney test.
(§2) Tumor growth suppression was measured by plotting the mean tumor volume versus the number of days post-inoculation with polyamine analog (growth curve analyses). Suppression is determined by comparison with the growth of untreated tumors (%T/C). More specifically,: %T/C is (treated tumor volume minus pretreatment volume) divided by (control tumor volume minus pretreatment volume)×100. Typically this is measured either when the control tumor volume reaches 1000 mm^3, or at the last day of treatment.
(§3) Tumor regression is measured as a percentage representing the average percentage of decrease in tumor volume from the largest pretreatment volume value.
(§4) Repression of regrowth is represented as regrowth delay, determined as the number of days following cessation of treatment when median group tumor volume exceeds 200 mm^3 (an arbitrary indication of regrowth which was determined statistically).
(§5) Cells from malignant solid human tumor tissue types, other than melanoma, have also been evaluated for their responsiveness to polyamine analog treatment including clonal cell lines A121 (human ovarian adenocarcinoma),A549 (lung adenocarcinoma), and HT29 colon adenocarcinoma). These cell lines were evaluated for the level of SSAT induction and potency of antitumor response following BENSPM treatment (80 mg/kg 3×/day×6 days) in-vivo using the methodology previously described in this embodiment. Also, dose of BENSPM was compared (80 mg/kg versus 40 mg/kg). The baseline of SSAT activity in the control mice (2 of 7 mice) ranged from 40 to 90 pmol/min/mg. Tumor cells from the human xenografts A121, A549, and HT29 were removed from two mice of each treated group of seven mice containing the respective xenograft at 16 hours following the final BENSPM injection to evaluate the level of induction of SSAT activity. […] The response to the polyamine analog was heterotypic. […] As discussed previously, it is not known whether the heterotypic antitumor response may be due to either the individual properties of the clonal line or the particular solid tumor type.

[2] = test system: spermidine/spermine N^1 -acetyltransferase (SSAT); assay: SSAT induction in host tissue of treated mice; format: in vivo, mouse; conditions: spleen (PANUT-3 mice), 80 mg/kg
[3] = test system: human melanoma xenografts; assay: antitumor response, human melanoma xenografts, dose comparison and general; format: in vivo; conditions: MALME-3, SH-1, PANUT-3, LOX
Procedure: The in-vivo antitumor activities of BESPM, BEHSPM, and BENSPM, were compared against various human xenografts in nude athymic mice. Cultured human tumor cells were first passaged several times in female HSD nude athymic mice. Fragments of resultant tumor were implanted into mice via subcutaneous trocar implantation. Mice of different treatment groups were treated with one or more of the three bis-ethyl spermine analogs BESPM, BEHSPM, and BENSPM. Anti-proliferative activity was monitored by antitumor responses including tumor growth suppression, tumor regression, or repression of regrowth.
For example, human melanoma cell lines including MALME-3, SH-1, PANUT-3 and LOX were evaluated for the level of SSAT induction and potency of antitumor response following BENSPM treatment (80 mg/kg 3×/day×6 days) using the methodology previously described in this embodiment. […] The baseline of SSAT activity in the control mice (2 examined of 7 mice) ranged from 50 to 90 pmol/min/mg. […] Note that following BENSPM treatment (as discussed above in the context of Tables 4 and 5), suppression of tumor growth of PANUT-3, unlike suppression of MALME-3 growth, lasted for only about 12 days. Further, the levels of SSAT in PANUT-3 at two weeks post-treatment, approached the levels in the control and correlated with the loss of antitumor activity.

[4] = test system: S-adenosylmethionine decarboxylase (SAMDC); assay: SAMDC activity in human melanoma xenografts in-vivo
[5] = test system: A549 lung adenocarcinoma xenografts; assay: antitumor response against A549 lung adenocarcinoma xenografts in mice; format: in vivo, human
Procedure: as §1, §2, §3, §4, §5

[6] = test system: ornithine decarboxylase (ODC); assay: ODC activity in human melanoma xenografts in-vivo
[7] = test system: Ebey human melanoma cells; assay: growth of Ebey melanoma cells in-vitro (FIG. 5); format: cell-based; conditions: 10 μM BESPM, 48 hours
Procedure: (§6) As mentioned previously, cells from malignant solid tumor respond to polyamine analog therapy heterotypically. SSAT induction and antitumor response may vary not only among the solid tumor tissue type, but also with the clonal line of tumor of a particular solid tissue type. However, a correlation between the level of induction of SSAT and the potency of antitumor response has been observed in tumors of a particular solid tissue type. For example, seven human melanoma cell lines were assayed in-vitro for their response, as determined by cell growth and level of SSAT induction, to 10 μM BESPM at 48 hours post-treatment. As summarized in FIG. 5, growth among the cell lines decreases as SSAT induction increases.

[8] = test system: LOX human melanoma cells; assay: growth of LOX melanoma cells in-vitro (FIG. 5); format: cell-based; conditions: 10 μM BESPM, 48 hours
Procedure: as §6

[9] = test system: LOX melanoma cells; assay: N^1 -acetylspermidine in LOX cell cultures; format: cell-based, human; conditions: 10 μm BESPM, 48 hours
Procedure: To illustrate this embodiment, LOX and MALME-3 cell cultures were treated for 48 hours with 10 μm BESPM. The cells from each culture were harvested and assayed for SSAT activity. Media samples were prepared by treating the samples with 50% trichloroacetic acid to give a final concentration of 10% and then centrifuged at 15,000×g for 10 minutes. The supernatant was then filtered through a 0.22-μm filter, extracted with several volumes of ether, lyophilized, and resuspended in 10% trichloroacetic acid. N^1 -acetylspermidine levels of cells and media samples were then measured by use of high-pressure liquid chromatography. […] Similarly, N^1 -acetylspermidine levels from MALME-3 control cells, media from control cell cultures, and treated MALME-3 cells contained minimal levels of N^1 -acetylspermidine.

[10] = test system: polyamine uptake; conditions: cited from earlier work
[11] = A121, BENSPM 80 mg/kg 3x/d × 6d
[12] = A549, BENSPM 80 mg/kg 3x/d × 6d
[13] = A549 xenograft, 80 mg/kg 3×/day×6 days

## CCNCCCNCCCNCCCNCC [BENSPM, N^1,N^11 -bis(ethyl)norspermine]
[1]; [11]
  % T/C at 1 g: < 0%
  Tumor Regression: showed tumor regression; also recorded: Present
[1]; A121, BENSPM 80 mg/kg 3x/d × 6d, dt 5 days
  Regrowth Delay: 3.2 × dt
[1]; A121, BENSPM 80 mg/kg 3x/d × 6d, for duration of experiment
  No Regrowth: 2 of 5 and 2/5
[1]; A121 xenograft, 80 mg/kg 3×/day×6 days
  total growth suppression period: 16 days
[2]; 2 wks post-treatment
  SSAT activity: 48/40
[2]; 16 hrs post-treatment
  SSAT activity: 163/322
[3]
  antitumor response at 40 mg/kg versus 80 mg/kg: very similar to the response at 80 mg/kg
[4]; MALME-3 study
  SAMDC levels: ODC and SAMDC levels were not suppressed
[4]; PANUT-3 study
  SAMDC levels: ODC and SAMDC levels were not suppressed
[5]; [12]
  % T/C at 1 g: 13%
  Tumor Regression: no measurable tumor regression and None
[5]; A549, BENSPM 80 mg/kg 3x/d × 6d, dt 10 days
  Regrowth Delay: 8.5 × dt
[5]; A549, BENSPM 80 mg/kg 3x/d × 6d, for duration of experiment
  No Regrowth: 2/5
[5]; [13]
  growth suppression after cessation of treatment: 85 days
  tumor regrowth: minimal tumor regrowth
[6]; MALME-3 study
  ODC levels: ODC and SAMDC levels were not suppressed
[6]; PANUT-3 study
  ODC levels: ODC and SAMDC levels were not suppressed

## CCNCCCNCCCCNCCCNCC [BESPM, N^1,N^12-bis(ethyl)spermine]
[7]
  growth inhibition (FIG. 5): greatest growth inhibition
[8]
  growth inhibition (FIG. 5): least growth inhibition
[9]
  N^1 -acetylspermidine Extracellular: < 0.1 nmol/culture
  N^1 -acetylspermidine Intracellular: < 0.1 nmol/culture
[10]
  polyamine uptake: suppresses polyamine uptake
